This note sets out measurements from PubChem BioAssay (NCI).

Each structure is given as a SMILES string.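 96-well plates; 48 h exposure; 5 concentrations. Endpoints by linear interpolation between flanking doses. Not reached: highest tested concentration assigned. The concentration for 50% growth inhibition is given as GI50. The concentration for full growth arrest is given as TGI.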

Common to all, as to test: NCI tumour cell line growth inhibition, 48 h
Test [1] has as its system HS 578T breast.
Test [2] has as its system NCI-H460 lung.
For test [3], the system named is TK-10 renal.
Test [4] has as its system 786-0 renal.
Test [5] has as its system HL-60(TB) leukemia.
Test [6] deals with UACC-257 melanoma.
The test system of test [7] is HCT-15 colon.
Test [8] concerns ACHN renal.
The subject of test [9] is OVCAR-8 ovarian.
Test [10] relates to CAKI-1 renal.

Regarding `COc1ccc(C2C(C#N)=C(N)OC3=C2COc2ccc(F)cc23)cc1OC` (stereo not given), the GI50 in [1] was 35.6 µM; in [2] it was 40 µM; in test [3], 19.4 µM; in test [4], 25.6 µM; in test [5], 34.2 µM; in [6], 41.4 µM. Moreover, the GI50 in test [7] was 18.8 µM; in test [8], 12.3 µM; in [9] it was 28.5 µM; in test [10], 16.5 µM. Besides, the TGI in test [1] is 81.7 µM; in test [2], over 100 µM; in test [3] it was 60.4 µM; in test [4], over 100 µM; in test [5], 70.8 µM; in test [6], over 100 µM. Also, the TGI was 76.5 µM in test [7], 37.2 µM in test [8], over 100 µM in [9] and 47.3 µM in test [10].

On to `O=C(Nc1ccc(Cl)cc1F)c1cc(Br)ccc1O`, for which the GI50 in test [1] was 0.521 µM; in test [2] it was 0.653 µM; in test [3] it was 4.15 µM; in test [4], 2.58 µM; in test [5] it was 0.919 µM; in [6] it was 0.705 µM. In addition, the GI50 in [7] was 1.06 µM; in test [8], 1.12 µM; in test [9], 1.13 µM; in test [10], 0.505 µM. Besides, the TGI in test [1] was 4.08 µM; in [2] it was 18.3 µM; in test [3] it was over 53.1 µM; in [4], 7.43 µM; in test [5] it was 3.77 µM; in [6] it was 3.29 µM. Further, the TGI was over 20.8 µM in [7], 16.7 µM in test [8], over 37.4 µM in [9] and 4.19 µM in [10].

For `CCOC(=O)N1CCN(C(=O)c2ccc(C(F)(F)F)nc2Nc2cc(Cl)ccc2C)CC1`, the GI50 in test [1] was 23.9 µM; in [2] it was 16.2 µM; in test [3] it was 17.4 µM; in test [4], 41.1 µM; in test [5] it was 12.1 µM; in [6] it was 27.2 µM. Besides, the GI50 was 23.1 µM in [7], 13.9 µM in test [8], 30.2 µM in test [9] and 21.1 µM in test [10]. The TGI in test [1] was 91.2 µM; in test [2], 33.6 µM; in test [3], 88.9 µM; in test [4], over 100 µM; in test [5] it was 38 µM; in test [6], over 100 µM. For the same compound, the TGI is over 100 µM in test [7], 89.4 µM in test [8], over 100 µM in test [9] and 64.5 µM in test [10].

As for `Fc1ccc(Nc2cc(-n3nnc4ccccc43)nc3ccccc23)cc1`, the GI50 is 18.2 µM in [1]; 26.2 µM in test [2]; 23.5 µM in [3]; 13.1 µM in [4]; over 100 µM in test [5]; 70.1 µM in test [6]. In addition, the GI50 in test [7] is over 100 µM; in [8] it was over 62.6 µM; in [9], 22.2 µM; in [10], 41.5 µM. For the same compound, the TGI is over 68.7 µM in test [1]; over 100 µM in [2]; over 77.8 µM in test [3]; over 49.9 µM in test [4]; over 100 µM in test [5]; over 100 µM in [6]. Also, the TGI was over 100 µM in test [7], over 100 µM in test [8], over 79 µM in [9] and over 68.9 µM in [10].

Take `COC(=O)[C@@H](NC(=O)[C@@H](OC)[C@@H]1Cc2cc3cc(OC4CC(OC5CC(O)C(O)C(C)O5)C(O)C(C)O4)c(C)c(O)c3c(O)c2C(=O)[C@H]1OC1CC(OC2CC(OC3CC(C)(O)C(O)C(C)O3)C(O)C(C)O2)C(O)C(C)O1)C(C)C` (stereo not given in full): the GI50 in test [1] is 0.114 µM; in test [2], 0.111 µM; in test [3], 0.208 µM; in [4] it was 0.175 µM; in [5] it was 0.348 µM; in [6], 0.128 µM. The GI50 in test [7] was 0.181 µM; in [8], 0.0956 µM; in [9] it was 0.15 µM; in test [10], 0.107 µM. The TGI is 1.39 µM in test [1]; 5.7 µM in test [2]; over 32.5 µM in test [3]; 5.98 µM in test [4]; over 32.5 µM in test [5]; 8.91 µM in test [6]. The TGI in test [7] was over 32.5 µM; in [8] it was 3.7 µM; in test [9] it was over 32.5 µM; in test [10], 1.67 µM.

With `O=C(O)c1cccc(OCCO)c1`, the TGI in test [1], in test [2], in test [3], in test [4], in [5] and in [6] was over 100 µM each time. Further, the TGI in [7], in test [8], in test [9] and in [10] was over 100 µM throughout.
